# Source: patent EP2457900A1, “New pyrazole derivatives having CRTh2 antagonistic behaviour” (Almirall, S.A., priority 2010, dated 2012)
# Target: T1, CRTh2 receptor (Homo sapiens, UniProt Q9Y5Y4)
# T1 construct: expressed in transfected cells; host or cells: CHO.K1 cells (membranes)
# T1 sequence (Q9Y5Y4 1-395): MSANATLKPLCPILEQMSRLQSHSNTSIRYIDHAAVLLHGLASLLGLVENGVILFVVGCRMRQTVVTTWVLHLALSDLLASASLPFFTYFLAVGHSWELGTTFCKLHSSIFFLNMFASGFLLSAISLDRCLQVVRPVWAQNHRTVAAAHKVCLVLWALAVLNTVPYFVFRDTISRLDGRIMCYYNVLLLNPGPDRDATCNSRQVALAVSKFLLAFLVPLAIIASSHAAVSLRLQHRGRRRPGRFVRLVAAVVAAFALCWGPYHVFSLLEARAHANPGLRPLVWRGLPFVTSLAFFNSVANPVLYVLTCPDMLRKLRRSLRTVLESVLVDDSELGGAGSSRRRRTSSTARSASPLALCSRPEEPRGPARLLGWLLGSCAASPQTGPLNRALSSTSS
# Assay: CRTh2 GTPγS antagonism binding assay
# Format: biochemical
# Conditions: membranes from CHO.K1 cells stably overexpressing the CRTh2 receptor; [35S]-GTPγS 0.1 nM; PGD2 at 50 nM (EC80); compound pre-incubated 1 h; read-out: GTPγ Binding
# Experimental: CRTh2 GTPγS antagonism binding assay
# The assay is performed using membranes obtained from CHO.K1 cells stably overexpressing the CRTh2 receptor and [^35S]-GTPγS as radioligand. Assay is performed pre-incubating 4-8 µg of membranes per well with the compound to be tested for 1 h, followed by incubation with PGD2 at 50 nM (EC80), 0.1 nM [^35S]-GTPγS in incubation buffer (20 mM HEPES, 10 mM MgCl2, 100 mM NaCl, 10 µM GDP, 10 µg/ml Saponine and 0.2% BSA) for 2 h at room temperature. The reaction is terminated by filtering in GF/C plates pre-treated with 20 mM HEPES, 10 mM MgCl2, 100 mM NaCl and washing 6 times with wash buffer (20 mM NaH2PO4, 20 mM Na2HPO4). After washing, plates are dried and scintillation buffer Optiphase added. The radioactivity retained in the filter is counted using a Microbeta liquid scintillation counter.
row,Compound,IC50
1,"Cc1nn(-c2cccc(NC(=O)[C@@H]3C[C@H]3c3ccccc3)c2)c(C)c1CC(=O)O (relative stereo) [Example 1, {3,5-Dimethyl-1-[3-({[trans-2-phenylcyclopropyl]carbonyl}amino)phenyl]-1H-pyrazol-4-yl}acetic acid]",250 nM
2,"Cc1ccc(NC(=O)Nc2cccc(Cn3nc(C)c(CC(=O)O)c3C)c2)cc1 [Example 4, {3,5-Dimethyl-1-[3-({[(4-methylphenyl)amino]carbonyl}amino)benzyl]-1H-pyrazol-4-yl}acetic acid]",370 nM
3,"Cc1nn(Cc2ccccc2S(=O)(=O)c2ccccc2)c(C)c1CC(=O)O [Example 13, {3,5-Dimethyl-1-[2-(phenylsulfonyl)benzyl]-1H-pyrazol-4-yl}acetic acid]",86 nM
4,"Cc1c(CC(=O)O)c(-c2ccccc2)nn1Cc1ccccc1S(=O)(=O)c1ccccc1 [Example 15, {5-Methyl-3-phenyl-1-[2-(phenylsulfonyl)benzyl]-1H-pyrazol-4-yl}acetic acid]",6.8 nM
5,"Cc1c(CC(=O)O)c(-c2ccccc2)nn1Cc1ccccc1S(=O)(=O)N1CCOCC1 [Example 23, {5-Methyl-1-[2-(morpholin-4-ylsulfonyl)benzyl]-3-phenyl-1H-pyrazol-4-yl}acetic acid]",74 nM
6,"Cc1c(CC(=O)O)c(-c2ccccc2)nn1Cc1ccccc1Cc1ccccc1 [Example 24, [1-(2-Benzylbenzyl)-5-methyl-3-phenyl-1H-pyrazol-4-yl]acetic acid]",105 nM
7,"Cc1c(CC(=O)O)c(-c2ccc(Cl)cc2)nn1Cc1ccccc1S(=O)(=O)N1CCOCC1 [Example 25, {3-(4-Chlorophenyl)-5-methyl-1-[2-(morpholin-4-ylsulfonyl)benzyl]-1H-pyrazol-4-yl}acetic acid]",94 nM
8,"Cc1c(CC(=O)O)c(-c2ccc(Cl)cc2)nn1Cc1ccccc1S(=O)(=O)c1ccccc1 [Example 26, {3-(4-Chlorophenyl)-5-methyl-1-[2-(phenylsulfonyl)benzyl]-1H-pyrazol-4-yl}acetic acid]",24 nM
9,"Cc1c(CC(=O)O)c(=O)[nH]n1Cc1ccccc1S(=O)(=O)c1ccccc1 [Example 29, {3-Hydroxy-5-methyl-1-[2-(phenylsulfonyl)benzyl]-1H-pyrazol-4-yl}acetic acid]",160 nM
10,"Cc1c(CC(=O)O)c(-c2ccccc2)nn1Cc1ccccc1S(=O)(=O)N1CCCCC1 [Example 30, {5-Methyl-3-phenyl-1-[2-(piperidin-1-ylsulfonyl)benzyl]-1H-pyrazol-4-yl}acetic acid]",66 nM
